Values after ≈ are worked out from the molar mass of the structure shown.
Legend:
[1] = tested on: E. coli ATCC 25922; test: microbe, parasite or virus in culture; settings: n = 2
Outline: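 Broth microdilution with 2-fold serial compound dilutions in MH broth, using cultures diluted 40-fold and grown at 37°C for 2 to 3 h, with or without Tween. Variants included 2% beractant added to mid-log cultures, or 50% human serum in MHB.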

[2] = tested on: A. baumannii ATCC 19606; test: microbe, parasite or virus in culture; settings: Acinetobacter baumannii, n = 2
Outline: (§1)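 Compounds and standard antibiotics were serially diluted 2-fold across 96-well plates. Cultures were diluted 40-fold in fresh MH broth, with and without Tween, and incubated at 37°C for 2 to 3 h. Each plate carried a bacteria-only row and a medium-only control.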

[3] = tested on: K. pneumoniae ATCC 13883; test: microbe, parasite or virus in culture; settings: Klebsiella pneumoniae, n = 2
Outline: as §1

[4] = tested on: P. aeruginosa ATCC 10145; test: microbe, parasite or virus in culture; settings: Pseudomonas aeruginosa, n = 2
Outline: as §1

[5] = tested on: MRSA; settings: literature value; cited from earlier work
Excerpt: TABLE 1 Literature MIC values for tested antibiotics | column: MIC (µg/ml) (reference[s]) / MRSA

[6] = tested on: E. coli; settings: literature value; cited from earlier work

CO[C@H]1/C=C/O[C@@]2(C)Oc3c(C)c(O)c4c(O)c(c(/C=N/N5CCN(C)CC5)c(O)c4c3C2=O)NC(=O)/C(C)=C\C=C\[C@H](C)[C@H](O)[C@@H](C)[C@@H](O)[C@@H](C)[C@H](OC(C)=O)[C@@H]1C [Rifampin, rifampin]
MIC ([1]; Corning NBS plate, MHB −T80, no additive): 4 to 8 µg/mL
MIC ([1]; Corning NBS plate, MHB −T80, no additive, listed as Rifampicin): 4 to 8 µg/mL
MIC ([1]; Corning PS plate, MHB +0.002% T80, no further additive): 8 to 16 µg/mL
MIC ([1]; Corning PS plate, MHB +0.002% T80, no further additive, listed as Rifampicin): 8 to 16 µg/mL
MIC ([1]; Corning PS plate, MHB −T80, no additive): 4 to 8 µg/mL
MIC ([1]; Corning PS plate, MHB −T80, no additive, listed as Rifampicin): 4 to 8 µg/mL
MIC ([1]; Corning TC plate, MHB −T80, no additive): 4 to 8 µg/mL
MIC ([1]; Corning TC plate, MHB −T80, no additive, listed as Rifampicin): 4 to 8 µg/mL
MIC ([1]; Escherichia coli, ATCC25922, 24 h, Corning NBS, MH + 2% LHB, 2% LS): 4 to 8 µg/mL
MIC ([1]; Escherichia coli, ATCC25922, 24 h, Corning NBS, MH + 2% LHB, 50% HS): 8 µg/mL
MIC ([1]; Escherichia coli, ATCC25922, 24 h, Corning NBS, MH + 2% LHB, no additive): 2 to 4 µg/mL
MIC ([1]; Escherichia coli, ATCC25922, 24 h, Corning NBS, MH + T80, 2% LS): 4 to 8 µg/mL
MIC ([1]; Escherichia coli, ATCC25922, 24 h, Corning NBS, MH + T80, 50% HS): 8 µg/mL
MIC ([1]; Escherichia coli, ATCC25922, 24 h, Corning PS, MH + 2% LHB, 2% LS): 4 to 8 µg/mL
MIC ([1]; Escherichia coli, ATCC25922, 24 h, Corning PS, MH + 2% LHB, 50% HS): 4 to 8 µg/mL
MIC ([1]; Escherichia coli, ATCC25922, 24 h, Corning PS, MH + 2% LHB, no additive): 4 to 8 µg/mL
MIC ([1]; Escherichia coli, ATCC25922, 24 h, Corning PS, MH + T80, 2% LS): 4 to 8 µg/mL
MIC ([1]; Escherichia coli, ATCC25922, 24 h, Corning PS, MH + T80, 50% HS): 8 µg/mL
MIC ([1]; Escherichia coli, ATCC25922, 24 h, Corning TC, MH + 2% LHB, 2% LS): 8 µg/mL
MIC ([1]; Escherichia coli, ATCC25922, 24 h, Corning TC, MH + 2% LHB, 50% HS): 8 to 16 µg/mL
MIC ([1]; Escherichia coli, ATCC25922, 24 h, Corning TC, MH + 2% LHB, no additive): 8 µg/mL
MIC ([1]; Escherichia coli, ATCC25922, 24 h, Corning TC, MH + T80, 2% LS): 4 to 8 µg/mL
MIC ([1]; Escherichia coli, ATCC25922, 24 h, Corning TC, MH + T80, 50% HS): 8 µg/mL
MIC ([1]; Escherichia coli, ATCC25922, 24 h, Trek PS, MH + 2% LHB, 2% LS): 2 to 4 µg/mL
MIC ([1]; Escherichia coli, ATCC25922, 24 h, Trek PS, MH + 2% LHB, 50% HS): 4 µg/mL
MIC ([1]; Escherichia coli, ATCC25922, 24 h, Trek PS, MH + 2% LHB, no additive): 4 to 8 µg/mL
MIC ([1]; Escherichia coli, ATCC25922, 24 h, Trek PS, MH + T80, 2% LS): 4 µg/mL
MIC ([1]; Escherichia coli, ATCC25922, 24 h, Trek PS, MH + T80, 50% HS): 4 to 8 µg/mL
MIC ([1]; Escherichia coli, ATCC25922, Corning NBS plate, MHB +0.002% T80, no further additive): 8 µg/mL (≈ 9.72 µM)
MIC ([1]; Escherichia coli, ATCC25922, Corning NBS plate, MHB −T80, no additive): 4 to 8 µg/mL (≈ 4.86 to 9.72 µM)
MIC ([1]; Escherichia coli, ATCC25922, Corning NBS, MH, 2% LS): 8 µg/mL (≈ 9.72 µM)
MIC ([1]; Escherichia coli, ATCC25922, Corning NBS, MH, 50% HS): 8 µg/mL (≈ 9.72 µM)
MIC ([1]; Escherichia coli, ATCC25922, Corning PS plate, MHB +0.002% T80, no further additive): 8 to 16 µg/mL (≈ 9.72 to 19.4 µM)
MIC ([1]; Escherichia coli, ATCC25922, Corning PS plate, MHB −T80, no additive): 4 to 8 µg/mL (≈ 4.86 to 9.72 µM)
MIC ([1]; Escherichia coli, ATCC25922, Corning PS, MH, 2% LS): 8 µg/mL (≈ 9.72 µM)
MIC ([1]; Escherichia coli, ATCC25922, Corning PS, MH, 50% HS): 4 to 8 µg/mL (≈ 4.86 to 9.72 µM)
MIC ([1]; Escherichia coli, ATCC25922, Corning TC plate, MHB +0.002% T80, no further additive): 8 µg/mL (≈ 9.72 µM)
MIC ([1]; Escherichia coli, ATCC25922, Corning TC plate, MHB −T80, no additive): 4 to 8 µg/mL (≈ 4.86 to 9.72 µM)
MIC ([1]; Escherichia coli, ATCC25922, Corning TC, MH, 2% LS): 8 µg/mL (≈ 9.72 µM)
MIC ([1]; Escherichia coli, ATCC25922, Corning TC, MH, 50% HS): 8 µg/mL (≈ 9.72 µM)
MIC ([1]; Escherichia coli, ATCC25922, Nunc PS plate, MHB +0.002% T80): 4 to 8 µg/mL (≈ 4.86 to 9.72 µM)
MIC ([1]; Escherichia coli, ATCC25922, Nunc PS plate, MHB −T80): 4 µg/mL (≈ 4.86 µM)
MIC ([1]; Escherichia coli, ATCC25922, Nunc U TC plate, MHB +0.002% T80): 8 µg/mL (≈ 9.72 µM)
MIC ([1]; Escherichia coli, ATCC25922, Nunc U TC plate, MHB −T80): 4 to 8 µg/mL (≈ 4.86 to 9.72 µM)
MIC ([1]; Escherichia coli, ATCC25922, Nunc flat TC plate, MHB +0.002% T80): 8 µg/mL (≈ 9.72 µM)
MIC ([1]; Escherichia coli, ATCC25922, Nunc flat TC plate, MHB −T80): 4 µg/mL (≈ 4.86 µM)
MIC ([1]; Escherichia coli, ATCC25922, Trek PS plate, MHB +0.002% T80, no further additive): 8 to 16 µg/mL (≈ 9.72 to 19.4 µM)
MIC ([1]; Escherichia coli, ATCC25922, Trek PS plate, MHB −T80, no additive): 4 µg/mL (≈ 4.86 µM)
MIC ([1]; Escherichia coli, ATCC25922, Trek PS, MH, 2% LS): 4 to 8 µg/mL (≈ 4.86 to 9.72 µM)
MIC ([1]; Escherichia coli, ATCC25922, Trek PS, MH, 50% HS): 8 µg/mL (≈ 9.72 µM)
MIC ([1]; Trek PS plate, MHB +0.002% T80, no further additive): 8 to 16 µg/mL
MIC ([2]; ATCC19606, Corning NBS, MHB +T80): 2 µg/mL (≈ 2.43 µM)
MIC ([2]; ATCC19606, Corning NBS, MHB -T80): 2 µg/mL (≈ 2.43 µM)
MIC ([2]; ATCC19606, Corning PS, MHB +T80): 2 µg/mL (≈ 2.43 µM)
MIC ([2]; ATCC19606, Corning PS, MHB -T80): 2 µg/mL (≈ 2.43 µM)
MIC ([2]; ATCC19606, Corning TC, MHB +T80): 2 µg/mL (≈ 2.43 µM)
MIC ([2]; ATCC19606, Corning TC, MHB -T80): 2 to 4 µg/mL (≈ 2.43 to 4.86 µM)
MIC ([3]; ATCC13883, Corning NBS, MHB +T80): 16 µg/mL (≈ 19.4 µM)
MIC ([3]; ATCC13883, Corning NBS, MHB -T80): 16 µg/mL (≈ 19.4 µM)
MIC ([3]; ATCC13883, Corning PS, MHB +T80): 16 to 64 µg/mL (≈ 19.4 to 77.8 µM)
MIC ([3]; ATCC13883, Corning PS, MHB -T80): 8 to 16 µg/mL (≈ 9.72 to 19.4 µM)
MIC ([3]; ATCC13883, Corning TC, MHB +T80): 16 µg/mL (≈ 19.4 µM)
MIC ([3]; ATCC13883, Corning TC, MHB -T80): 16 µg/mL (≈ 19.4 µM)
MIC ([4]; ATCC10145, Corning NBS, MHB +T80): 32 µg/mL (≈ 38.9 µM)
MIC ([4]; ATCC10145, Corning NBS, MHB -T80): 16 to 32 µg/mL (≈ 19.4 to 38.9 µM)
MIC ([4]; ATCC10145, Corning PS, MHB +T80): 32 to 64 µg/mL (≈ 38.9 to 77.8 µM)
MIC ([4]; ATCC10145, Corning PS, MHB -T80): 16 to 32 µg/mL (≈ 19.4 to 38.9 µM)
MIC ([4]; ATCC10145, Corning TC, MHB +T80): 32 µg/mL (≈ 38.9 µM)
MIC ([4]; ATCC10145, Corning TC, MHB -T80): 32 µg/mL (≈ 38.9 µM)
MIC (literature) [5]: 0.015 ([62]) µg/ml
MIC (literature) [6]: 2 ([74], [75]) µg/ml

Source: publication PMC6325200, “Effects of Microplate Type and Broth Additives on Microdilution MIC Susceptibility Assays” (Antimicrobial Agents and Chemotherapy, 2018)
